Data published in the NIST ThermoML archive (doi:10.1016/j.fluid.2012.01.014).
± gives the expanded uncertainty stated by the source.

Assay: cn = amount concentration of the nth substance listed, in mol/dm3
Details: Ring tensiometer

CCCCCCCCCCCCCCCCS(=O)(=O)[O-].[Na+] [sodium hexadecylsulfonate] + O
surface tension liquid-gas [mN/m]
Details | 293 K | 303 K | 313 K
c1 = 1e-08 | 72.8 ± 1.3 | 71.2 ± 1.3 | 69.6 ± 1.3
c1 = 1e-07 | 72.8 ± 1.3 | 71.19 ± 1.3 | 69.6 ± 1.3
c1 = 1e-06 | 72.7 ± 1.3 | 71.15 ± 1.3 | 69.55 ± 1.3
c1 = 3.98e-06 | 72.6 ± 1.3 | 70.99 ± 1.3 | 69.42 ± 1.3
c1 = 5.01e-06 | 72.5 ± 1.3 | 70.89 ± 1.3 | 69.31 ± 1.3
c1 = 6.03e-06 | 72.4 ± 1.3 | 70.77 ± 1.3 | 69.21 ± 1.3
c1 = 7.94e-06 | 72.3 ± 1.3 | 70.69 ± 1.3 | 69.09 ± 1.3
c1 = 1e-05 | 72.2 ± 1.3 | 70.54 ± 1.3 | 68.99 ± 1.3
c1 = 2e-05 | 71.6 ± 1.3 | 69.98 ± 1.3 | 68.41 ± 1.3
c1 = 6.03e-05 | 69 ± 1.3 | 68.49 ± 1.3 | 67.04 ± 1.3
c1 = 0.0001 | 66.2 ± 1.3 | 65.54 ± 1.3 | 64.15 ± 1.2
c1 = 0.0002 | 59.15 ± 1.2 | 58.94 ± 1.2 | 58.84 ± 1.2
c1 = 0.000603 | 43.23 ± 1.1 | 43.17 ± 1.1 | 43.12 ± 1.1
c1 = 0.000741 | 40.28 ± 1.1 | 40.07 ± 1.1 | 39.97 ± 1.1
c1 = 0.000891 | – | 38.59 ± 1.1 | 38.55 ± 1.1

O [water] + CCCCCCCCCCCCCCCC[N+](C)(C)C.[Br-]
c2 = 0
Details | surface tension liquid-gas [mN/m]
293 K | 72.8 ± 1.3
303 K | 71.2 ± 1.3
313 K | 69.6 ± 1.3

CCCCCCCCCCCCCC[N+](C)(C)C.[Br-] [tetradecyltrimethylammonium bromide] + O
surface tension liquid-gas [mN/m]
Details | 293 K | 313 K
c1 = 1e-07 | 72.4 ± 1.3 | 69.59 ± 1.3
c1 = 5.01e-07 | 72.3 ± 1.3 | 69.54 ± 1.3
c1 = 1e-06 | 72.2 ± 1.3 | 69.48 ± 1.3
c1 = 5.01e-06 | 71.7 ± 1.3 | 69.03 ± 1.3
c1 = 1e-05 | 71.6 ± 1.3 | 68.49 ± 1.3
c1 = 5.01e-05 | 70.8 ± 1.3 | 67.49 ± 1.3
c1 = 0.0001 | 69.9 ± 1.3 | 66.58 ± 1.3
c1 = 0.0002 | 66.7 ± 1.3 | 63.61 ± 1.2
c1 = 0.000501 | 59.1 ± 1.2 | 58.43 ± 1.2
c1 = 0.000631 | 56.1 ± 1.2 | 55.41 ± 1.2
c1 = 0.000708 | 54.6 ± 1.2 | 53.85 ± 1.2
c1 = 0.000794 | 53.7 ± 1.2 | 52.61 ± 1.2
c1 = 0.000891 | 52.7 ± 1.2 | 51.54 ± 1.2
c1 = 0.001 | 51.9 ± 1.2 | 50.21 ± 1.2
c1 = 0.002 | 43.7 ± 1.1 | 42.65 ± 1.1
c1 = 0.00316 | 36.7 ± 1.1 | 36.05 ± 1.1
c1 = 0.00398 | 36.3 ± 1.1 | 35.38 ± 1.1
c1 = 0.00501 | 36.3 ± 1.1 | 35.38 ± 1.1
c1 = 0.00708 | 36.3 ± 1.1 | 35.38 ± 1.1
c1 = 0.01 | 36.3 ± 1.1 | 35.38 ± 1.1

CCCCCCCCCCCC[N+](C)(C)Cc1ccccc1.[Br-] [benzenemethanaminium, N-dodecyl-N,N-dimethyl, bromide] + O
surface tension liquid-gas [mN/m]
Details | 293 K | 303 K | 313 K
c1 = 1e-07 | 72.4 ± 1.3 | 71.18 ± 1.3 | 69.58 ± 1.3
c1 = 5.01e-07 | 72.3 ± 1.3 | 71.09 ± 1.3 | 69.49 ± 1.3
c1 = 1e-06 | 71.6 ± 1.3 | 70.98 ± 1.3 | 69.38 ± 1.3
c1 = 5.01e-06 | 70.7 ± 1.3 | 70.22 ± 1.3 | 68.59 ± 1.3
c1 = 1e-05 | 69.6 ± 1.3 | 69.44 ± 1.3 | 67.78 ± 1.3
c1 = 5.01e-05 | 66.8 ± 1.3 | 65.88 ± 1.3 | 64.1 ± 1.2
c1 = 0.0001 | 64.3 ± 1.3 | 63.66 ± 1.2 | 61.81 ± 1.2
c1 = 0.000316 | 55.3 ± 1.2 | 54.19 ± 1.2 | 53.4 ± 1.2
c1 = 0.000501 | 51.7 ± 1.2 | 50.07 ± 1.2 | 49.15 ± 1.2
c1 = 0.001 | 46.2 ± 1.2 | 44.48 ± 1.1 | 43.37 ± 1.1
c1 = 0.002 | 41.1 ± 1.1 | 40 ± 1.1 | 38.93 ± 1.1
c1 = 0.00316 | 37.8 ± 1.1 | 36.73 ± 1.1 | 35.76 ± 1.1
c1 = 0.00398 | 36 ± 1.1 | 34.82 ± 1.1 | 33.92 ± 1.1
c1 = 0.00501 | 34.5 ± 1.1 | 33.11 ± 1.1 | 32.67 ± 1.1
c1 = 0.00708 | 34.5 ± 1.1 | 33.11 ± 1.1 | 32.67 ± 1.1
c1 = 0.01 | 34.4 ± 1.1 | 33.11 ± 1.1 | 32.67 ± 1.1

O [water] + CCCCCCCCCCCCOS(=O)(=O)[O-].[Na+]
c2 = 0
Details | surface tension liquid-gas [mN/m]
293 K | 72.8 ± 1.3
303 K | 71.2 ± 1.3
313 K | 69.6 ± 1.3

CCCCCCCCCCCCOS(=O)(=O)[O-].[Na+] [sodium dodecyl sulfate] + O
surface tension liquid-gas [mN/m]
Details | 293 K | 303 K | 313 K
c1 = 1e-08 | 72.8 ± 1.3 | 71.2 ± 1.3 | 69.6 ± 1.3
c1 = 1e-07 | 72.9 ± 1.3 | 71.19 ± 1.3 | 69.6 ± 1.3
c1 = 1e-06 | 72.79 ± 1.3 | 71.17 ± 1.3 | 69.58 ± 1.3
c1 = 3.98e-06 | 72.78 ± 1.3 | 71.15 ± 1.3 | 69.56 ± 1.3
c1 = 7.94e-06 | 72.76 ± 1.3 | 71.14 ± 1.3 | 69.53 ± 1.3
c1 = 1e-05 | 72.75 ± 1.3 | 71 ± 1.3 | 69.51 ± 1.3
c1 = 5.01e-05 | 72.69 ± 1.3 | 70.81 ± 1.3 | 69.48 ± 1.3
c1 = 6.31e-05 | 72.46 ± 1.3 | 70.59 ± 1.3 | 69.27 ± 1.3
c1 = 0.0001 | 72.24 ± 1.3 | 70.01 ± 1.3 | 69.05 ± 1.3
c1 = 0.0002 | 71.62 ± 1.3 | 69.29 ± 1.3 | 67.85 ± 1.3
c1 = 0.000631 | 68.1 ± 1.3 | 66.62 ± 1.3 | 65.14 ± 1.3
c1 = 0.000794 | 66.25 ± 1.3 | 65.21 ± 1.3 | 64.01 ± 1.2
c1 = 0.001 | 64.32 ± 1.2 | 63.87 ± 1.2 | 62.73 ± 1.2
c1 = 0.002 | 57.43 ± 1.2 | 57.02 ± 1.2 | 55.94 ± 1.2
c1 = 0.00398 | 49.72 ± 1.2 | 49.52 ± 1.2 | 48.45 ± 1.2
c1 = 0.00631 | 43.37 ± 1.1 | 42.98 ± 1.1 | 41.7 ± 1.1
c1 = 0.00794 | 38.88 ± 1.1 | 38.34 ± 1.1 | 36.91 ± 1.1
c1 = 0.00832 | 38.4 ± 1.1 | 38.21 ± 1.1 | 36.42 ± 1.1
c1 = 0.01 | 38.4 ± 1.1 | 38.21 ± 1.1 | 36.42 ± 1.1

O [water] + CCCCCCCCCCCCCC[N+](C)(C)C.[Br-]
c2 = 0
Details | surface tension liquid-gas [mN/m]
293 K | 72.8 ± 1.3
313 K | 69.6 ± 1.3

CCCCCCCCCCCCCCCC[N+](C)(C)C.[Br-] [N,N,N-trimethyl-1-hexadecanaminium bromide] + O
surface tension liquid-gas [mN/m]
Details | 293 K | 303 K | 313 K
c1 = 1e-08 | 72.79 ± 1.3 | 71.2 ± 1.3 | 69.6 ± 1.3
c1 = 1e-07 | 72.78 ± 1.3 | 71.19 ± 1.3 | 69.59 ± 1.3
c1 = 5.01e-07 | 72.73 ± 1.3 | 71.16 ± 1.3 | 69.56 ± 1.3
c1 = 1e-06 | 72.66 ± 1.3 | 71.11 ± 1.3 | 69.52 ± 1.3
c1 = 2e-06 | 72.54 ± 1.3 | 71.03 ± 1.3 | 69.45 ± 1.3
c1 = 3.98e-06 | 72.31 ± 1.3 | 70.86 ± 1.3 | 69.3 ± 1.3
c1 = 6.31e-06 | 72.1 ± 1.3 | 70.69 ± 1.3 | 69.16 ± 1.3
c1 = 7.94e-06 | 71.91 ± 1.3 | 70.53 ± 1.3 | 69.02 ± 1.3
c1 = 1e-05 | 71.73 ± 1.3 | 70.37 ± 1.3 | 68.88 ± 1.3
c1 = 2e-05 | 70.97 ± 1.3 | 69.62 ± 1.3 | 68.22 ± 1.3
c1 = 3.02e-05 | 70.31 ± 1.3 | 68.93 ± 1.3 | 67.61 ± 1.3
c1 = 3.98e-05 | 69.72 ± 1.3 | 68.3 ± 1.3 | 67.04 ± 1.3
c1 = 5.01e-05 | 69.2 ± 1.3 | 67.72 ± 1.3 | 66.51 ± 1.3
c1 = 6.03e-05 | 68.81 ± 1.3 | 67.18 ± 1.3 | 66.01 ± 1.3
c1 = 7.08e-05 | 68.48 ± 1.3 | 66.67 ± 1.3 | 65.54 ± 1.3
c1 = 7.94e-05 | 68.06 ± 1.3 | 66.2 ± 1.3 | 65.1 ± 1.3
c1 = 9.12e-05 | 67.15 ± 1.3 | 65.75 ± 1.3 | 64.68 ± 1.3
c1 = 0.0001 | 66.41 ± 1.3 | 65.32 ± 1.3 | 64.28 ± 1.2
c1 = 0.0002 | 60.86 ± 1.2 | 60.52 ± 1.2 | 59.45 ± 1.2
c1 = 0.000302 | 54.74 ± 1.2 | 54.35 ± 1.2 | 53.95 ± 1.2
c1 = 0.000398 | 50.39 ± 1.2 | 50.02 ± 1.2 | 49.72 ± 1.2
c1 = 0.000501 | 47.02 ± 1.1 | 46.83 ± 1.1 | 46.15 ± 1.1
c1 = 0.000603 | 44.27 ± 1.1 | 44.12 ± 1.1 | 43.53 ± 1.1
c1 = 0.000708 | 41.94 ± 1.1 | 41.82 ± 1.1 | 41.22 ± 1.1
c1 = 0.000794 | 39.92 ± 1.1 | 39.75 ± 1.1 | 39 ± 1.1
c1 = 0.000891 | 38.15 ± 1.1 | 38.01 ± 1.1 | 37.25 ± 1.1
c1 = 0.000912 | 37.9 ± 1.1 | 37.8 ± 1.1 | 37 ± 1.1
c1 = 0.001 | 37.9 ± 1.1 | 37.2 ± 1.1 | 36.4 ± 1.1
c1 = 0.002 | 37.8 ± 1.1 | 37.14 ± 1.1 | 36.4 ± 1.1
